Experimental findings from patent US8354522B2, “Immunostimulatory oligoribonucleotides” (Coley Pharmaceutical GmbH, priority 2005, dated 2013) are described below.

Holding throughout (type): cell-based
The subject of one data set is Human PBMC. Briefly: Cytokine production upon human PBMC stimulation (ORN complexed to DOTAP, 16 h, ELISA). The conditions noted are these: for IFN-alpha / TNF-alpha: human PBMC stimulated for 16 h, supernatant ELISA. More on the design: key to IFN-alpha / TNF-alpha: +: cytokine production; −: no cytokine production. In a few lines:
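Healthy-donor PBMCs were stimulated for 16 h with ORN complexed to DOTAP (25 μg/ml), titrated in 7 steps of 1/3 from 2 μM (to 0.9 nM). IFN-alpha and TNF-alpha in supernatants were measured by ELISA. Mean/max activity at 0.6 μM and EC50 came from 3-6 donors over two experiments.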
For orientation: In an ELISA, binding on a coated surface is turned into a signal by an enzyme label.

The subject of another data set is CD123+ purified pDC. As to the kind of experiment: CD86 surface marker expression upon human pDC stimulation (FACS). The conditions noted are these: 1 μM ORN complexed to 25 μg/ml DOTAP, 16 h. On the procedure: (§1) FIG. 10 is a series of graphs showing surface marker expression upon human pDC stimulation with AU-rich or GU-rich ORN. CD123+ purified pDC (FIGS. 10a and 10b) or isolated monocytes (FIG. 10c) were incubated with 1 μM ORN complexed to 25 μg/ml DOTAP or DOTAP alone (FIG. 10a) or indicated amounts of ORN complexed to DOTAP or DOTAP alone (FIGS. 10b-10c). After 16 h cells were harvested and stained with CD123, CD11c and HLA-DR antibodies (FIGS. 10a and 10b) or CD14 and CD19 (FIG. 10c). Cell surface marker activation was measured by CD86 (FIGS. 10a and 10b) or CD80 (FIG. 10c) expression. […] FIG. 10b is a graph illustrating that CD86 surface marker expression upon human pDC stimulation is dose-dependent.
(§2) CD123+ purified pDC (FIGS. 10a and 10b) or isolated monocytes (FIG. 10c) were incubated with 1 μM ORN complexed to 25 μg/ml DOTAP or DOTAP alone (FIG. 10a) or indicated amounts of ORN complexed to DOTAP or DOTAP alone (FIGS. 10b-10c). After 16 h cells were harvested and stained with CD123, CD11c and HLA-DR antibodies (FIGS. 10a and 10b) or CD14 and CD19 (FIG. 10c). […] This activation was determined to be dose-dependent (FIG. 10b).

The next data set relates to CD14-positive cell. As to the kind of experiment: CD80 surface marker expression upon CD14-positive cell stimulation (FACS). The conditions noted are these: human PBMC (data not shown) and CD14-positive cells, ORN complexed to DOTAP, 16 h. As for the experimental part:
as §1, §2

The subject of data set [1] is Splenocytes from 3 Sprague-Dawley rats. As to the kind of experiment: TNF-alpha production by rat splenocytes (ELISA). The conditions noted are these: pooled rat splenocytes, ORN complexed to 62.5 μg/ml DOTAP with 1/5 dilution, 20 hours. As for the experimental part:
Splenocytes from 3 Sprague-Dawley rats were pooled and stimulated with indicated concentrations of SEQ ID NO:21, SEQ ID NO:13 (both complexed to 62.5 μg/ml DOTAP with 1/5 dilution), R-848 or DOTAP alone (62.5 μg/ml->1/5 dilution). Supernatants were harvested after 20 hours and TNF-alpha levels were measured by ELISA.

With “U*U*G*U*U*G*U*U*G*U*U*G*U*U*G*U*U*G*U*U (UUGUUGUUGUUGUUGUUGUU; listed as RNA, chemistry not fully specified) [SEQ ID NO: 21]”, in the data set with Human PBMC, the IFN-alpha entry is listed as “+” and the TNF-alpha result is given as “+”. For the same substance, in the data set on CD123+ purified pDC, the “CD86 surface marker expression” value is recorded as “significant CD86 activation”. The “CD80 surface marker expression” value with CD14-positive cell is “no difference in CD80 surface marker expression”. Further, the TNF-alpha production result in data set [1] is “resulted in TNF-alpha production”.
With “U*U*A*U*U*A*U*U*A*U*U*A*U*U*A*U*U*A*U*U (UUAUUAUUAUUAUUAUUAUU; chemistry not fully specified) [SEQ ID NO: 13]”, the “IFN-alpha production upon PBMC stimulation (in words)” value in the data set with Human PBMC (human PBMC) is recorded as “no IFN-alpha cytokine production”. Also, in the data set on Human PBMC, the IFN-alpha entry was “−” and the TNF-alpha result was “+”. For the same substance, the “CD86 surface marker expression” value with CD123+ purified pDC is “very little CD86 activation”. Moreover, in the data set on CD14-positive cell, the “CD80 surface marker expression” value is on record as “no difference in CD80 surface marker expression”. Besides, in data set [1], the TNF-alpha production entry is recorded as “no TNF-alpha production”.
